Source: publication PMC8592951, “9-Methyl-β-carboline inhibits monoamine oxidase activity and stimulates the expression of neurotrophic factors by astrocytes” (Journal of Neural Transmission, 2020)

Experiments:
MAO-A = target: T1, MAO-A (Homo sapiens, UniProt P21397); assay: MAO-Glo luminescence enzyme activity assay; type: biochemical
T1 construct: gene MAOA
T1 sequence (P21397 1-527): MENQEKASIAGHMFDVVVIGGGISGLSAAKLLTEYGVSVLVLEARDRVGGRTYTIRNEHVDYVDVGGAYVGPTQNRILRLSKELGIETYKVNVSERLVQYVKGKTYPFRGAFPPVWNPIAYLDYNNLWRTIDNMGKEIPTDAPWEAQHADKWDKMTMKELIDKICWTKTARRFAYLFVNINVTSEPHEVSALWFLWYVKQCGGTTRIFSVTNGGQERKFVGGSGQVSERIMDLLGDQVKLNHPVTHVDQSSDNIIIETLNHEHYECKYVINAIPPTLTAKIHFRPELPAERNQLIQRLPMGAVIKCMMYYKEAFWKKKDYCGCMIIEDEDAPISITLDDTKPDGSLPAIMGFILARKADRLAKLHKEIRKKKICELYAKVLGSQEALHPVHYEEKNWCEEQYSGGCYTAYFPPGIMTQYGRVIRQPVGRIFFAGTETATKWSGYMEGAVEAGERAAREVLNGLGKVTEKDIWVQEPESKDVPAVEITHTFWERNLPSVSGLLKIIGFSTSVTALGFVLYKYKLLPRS

MAO-B = target: T2, MAO-B (Homo sapiens, UniProt P27338); assay: MAO-Glo luminescence enzyme activity assay with purchased human MAO-B; type: biochemical
T2 construct: gene MAOB
T2 sequence (P27338 2-520): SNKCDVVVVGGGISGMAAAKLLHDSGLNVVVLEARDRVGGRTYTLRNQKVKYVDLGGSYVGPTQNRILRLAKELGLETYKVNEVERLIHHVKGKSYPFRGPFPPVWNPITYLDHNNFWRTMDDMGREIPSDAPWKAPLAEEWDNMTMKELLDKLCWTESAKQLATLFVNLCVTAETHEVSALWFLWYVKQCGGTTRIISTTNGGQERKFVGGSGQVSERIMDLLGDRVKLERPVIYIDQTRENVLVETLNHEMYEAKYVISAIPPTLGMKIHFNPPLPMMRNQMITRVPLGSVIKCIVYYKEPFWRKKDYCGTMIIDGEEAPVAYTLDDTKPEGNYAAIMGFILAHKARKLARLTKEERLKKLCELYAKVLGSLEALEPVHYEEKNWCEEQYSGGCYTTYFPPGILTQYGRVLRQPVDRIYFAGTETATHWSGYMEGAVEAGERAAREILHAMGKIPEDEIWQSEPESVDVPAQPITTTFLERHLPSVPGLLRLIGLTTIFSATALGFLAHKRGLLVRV

For `Cn1c2ccccc2c2ccncc21` [9-methyl-β-carboline], the IC50 (MAO-A) was 1 µM and the IC50 (MAO-B) was 15.5 µM.
